Key:
Format in all cases: biochemical
[1] = biological target: T1, alkaline phosphatase (AP) (Escherichia coli, UniProt P00634, R188S); test: steady-state hydrolysis by purified enzyme, kcat/KM
[2] = biological target: T2, alkaline phosphatase (AP) (Escherichia coli, UniProt P00634, R188K); test: as above
[3] = biological target: alkaline phosphatase (AP) (Escherichia coli, UniProt P00634); test: as above
[4] = biological target: T1, alkaline phosphatase (AP); test: […]-based hydrolysis assay, kcat/KM
[5] = biological target: T2, alkaline phosphatase (AP); test: […]-based hydrolysis assay, kcat/KM
[6] = biological target: T2, alkaline phosphatase (AP); test: continuous absorbance assay of hydrolysis, kcat/KM
[7] = biological target: T1, alkaline phosphatase (AP); test: continuous absorbance assay of hydrolysis, kcat/KM

T2 sequence (P00634 23-471 R188K): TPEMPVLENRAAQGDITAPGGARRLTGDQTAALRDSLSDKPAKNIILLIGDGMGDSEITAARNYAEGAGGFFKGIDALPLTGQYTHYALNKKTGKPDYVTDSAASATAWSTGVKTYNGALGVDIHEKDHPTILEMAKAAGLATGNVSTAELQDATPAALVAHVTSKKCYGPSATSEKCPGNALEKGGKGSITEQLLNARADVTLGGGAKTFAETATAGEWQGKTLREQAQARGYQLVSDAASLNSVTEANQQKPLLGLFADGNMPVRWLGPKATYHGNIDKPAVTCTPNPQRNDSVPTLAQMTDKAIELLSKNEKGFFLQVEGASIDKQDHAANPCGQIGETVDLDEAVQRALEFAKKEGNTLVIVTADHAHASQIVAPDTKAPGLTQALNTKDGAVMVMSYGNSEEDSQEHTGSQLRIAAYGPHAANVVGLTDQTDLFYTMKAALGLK
T1 sequence (P00634 23-471 R188S): as the sequence (P00634 23-471 R188K) above, with K166S counted along it
Sequence of alkaline phosphatase (AP) (Escherichia coli, UniProt P00634) (P00634 22-471): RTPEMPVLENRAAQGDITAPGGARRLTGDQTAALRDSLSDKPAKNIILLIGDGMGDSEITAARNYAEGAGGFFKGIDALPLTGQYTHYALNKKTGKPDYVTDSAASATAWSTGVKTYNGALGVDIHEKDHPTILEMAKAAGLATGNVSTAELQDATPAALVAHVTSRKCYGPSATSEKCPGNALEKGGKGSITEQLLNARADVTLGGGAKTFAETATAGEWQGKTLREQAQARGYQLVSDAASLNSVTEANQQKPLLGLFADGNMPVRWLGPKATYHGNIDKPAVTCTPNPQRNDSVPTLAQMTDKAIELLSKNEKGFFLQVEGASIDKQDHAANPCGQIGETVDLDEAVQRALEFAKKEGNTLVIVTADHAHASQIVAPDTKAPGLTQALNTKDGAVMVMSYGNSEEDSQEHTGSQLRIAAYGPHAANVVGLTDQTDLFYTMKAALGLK

## O=[N+]([O-])c1ccc(OP(O)(O)=S)cc1 [pNPPS, p-Nitrophenyl O-phosphorothioate]
[1]
  kcat/KM (M^-1s^-1) / pNPPS: 2.6 × 10^3 M^−1s^−1
[2]
  kcat/KM (M^-1s^-1) / pNPPS: 1.6 × 10^4 M^−1s^−1
[3]
  kcat/KM (M^-1s^-1) / pNPPS: 5.5 × 10^3 M^−1s^−1

## CCOP(=O)(O)O [EtOP, ethyl phosphate]
[4]
  EtOP / kcat/KM: 24 M⁻¹ s⁻¹
[5]
  EtOP / kcat/KM: 20 M⁻¹ s⁻¹

## O=[N+]([O-])c1ccc(OP(=O)(O)O)cc1 [pNPP, p-Nitrophenyl phosphate]
[6]
  pNPP / kcat/KM (M^-1s^-1): 1.9 × 10^5 M^−1s^−1
[7]
  pNPP / kcat/KM (M^-1s^-1): 1.0 × 10^5 M^−1s^−1

Reference: article PMC2587100 (Biochemistry, 2008)
